Source: article PMC4277782 (Journal of the American Chemical Society, 2014)

Tested on: ProcM
Experiment: ProcM reactions with other
Format: biochemical, Prochlorococcus MIT9313
Conditions: preliminary; data not shown

ProcA4.3: ProcA substrate (TASGGCDTSMFCY; UniProt Q7V735 65-77, looked up)
cyclization kinetics: some thioether rings form quickly, while others require a much longer time
